Source: the supplement of paper PMC10627819

Tests used:
Assay in all cases: fitness (endpoint OD595 vs no drug) (fraction); higher = more growth
B. subtilis 168 = tested on: B. subtilis 168
Procedure, shortened: (§1)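 Fitness was defined as the optical density at the transition into stationary phase relative to the robust mean of no-drug control wells. Values were capped at 1. Cultures were started at OD595 0.01 in 384-well plates (30 µl, or 55 µl for S. pneumoniae) in TSB, LB Lennox or CY at 37 °C. OD595 was recorded every 30 min over 14 h, with the first reading subtracted as background.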

S. aureus DSM 20231 = tested on: S. aureus DSM 20231
Procedure, shortened: as §1

S. pneumoniae D39V = tested on: S. pneumoniae D39V
Procedure, shortened: as §1

CN(C)[C@@H]1C(O)=C(C(N)=O)C(=O)[C@@]2(O)C(O)=C3C(=O)c4c(O)ccc(Cl)c4[C@@](C)(O)[C@H]3C[C@@H]12 [Chlortetracycline] + COc1cc(Cc2cnc(N)nc2N)cc(OC)c1OC [Trimethoprim]
one replicate
Details	fitness
B. subtilis 168, first compound 0.0475 µg/mL, partner 0.1 µg/mL	0.82
B. subtilis 168, first compound 0.0475 µg/mL, partner 0.2 µg/mL	0.735
B. subtilis 168, first compound 0.0475 µg/mL, partner 0.4 µg/mL	0.637
B. subtilis 168, first compound 0.0475 µg/mL, partner 1 µg/mL	0.296
B. subtilis 168, first compound 0.0475 µg/mL, partner 2 µg/mL	0.305
B. subtilis 168, first compound 0.095 µg/mL, partner 0.1 µg/mL	0.81
B. subtilis 168, first compound 0.095 µg/mL, partner 0.2 µg/mL	0.707
B. subtilis 168, first compound 0.095 µg/mL, partner 0.4 µg/mL	0.531
B. subtilis 168, first compound 0.095 µg/mL, partner 1 µg/mL	0.132
B. subtilis 168, first compound 0.095 µg/mL, partner 2 µg/mL	0.119
B. subtilis 168, first compound 0.19 µg/mL, partner 0.1 µg/mL	0.599
B. subtilis 168, first compound 0.19 µg/mL, partner 0.2 µg/mL	0.421
B. subtilis 168, first compound 0.19 µg/mL, partner 0.4 µg/mL	0.279
B. subtilis 168, first compound 0.19 µg/mL, partner 1 µg/mL	0.0652
B. subtilis 168, first compound 0.19 µg/mL, partner 2 µg/mL	0.0699
S. aureus DSM 20231, first compound 0.006 µg/mL, partner 0.125 µg/mL	0.656
S. aureus DSM 20231, first compound 0.006 µg/mL, partner 0.25 µg/mL	0.606
S. aureus DSM 20231, first compound 0.006 µg/mL, partner 0.5 µg/mL	0.509
S. aureus DSM 20231, first compound 0.048 µg/mL, partner 0.125 µg/mL	0.0947

fitness
Details	partner 0.125 µg/mL	partner 0.25 µg/mL	partner 0.5 µg/mL	partner 1 µg/mL
B. subtilis 168, first compound 0.0475 µg/mL	0.762	0.62	–	–
B. subtilis 168, first compound 0.095 µg/mL	0.673	0.548	–	–
B. subtilis 168, first compound 0.19 µg/mL	0.52	0.406	0.279	–
S. aureus DSM 20231, first compound 0.012 µg/mL	0.47	0.545	0.36	0.0767
S. aureus DSM 20231, first compound 0.024 µg/mL	0.159	–	0.171	0.0593
S. aureus DSM 20231, first compound 0.048 µg/mL	–	0.117	0.0724	0.042

CC(=O)Oc1ccccc1C(=O)O [Acetylsalicylic acid] + C[n+]1ccc(-c2cc[n+](C)cc2)cc1 [Paraquat]
fitness
Details	partner 1.25 µg/mL	partner 1.5 µg/mL	partner 2.5 µg/mL	partner 3 µg/mL	partner 5 µg/mL	partner 6 µg/mL
S. aureus DSM 20231, first compound 250 µg/mL	0.877	–	0.868	–	0.861	–
S. aureus DSM 20231, first compound 500 µg/mL	0.823	–	0.807	–	0.774	–
S. pneumoniae D39V, first compound 250 µg/mL	–	0.972	–	0.954	–	0.934
S. pneumoniae D39V, first compound 500 µg/mL	–	0.969	–	0.938	–	0.872
S. pneumoniae D39V, first compound 1000 µg/mL	–	0.916	–	0.873	–	0.772

CN(C)[C@@H]1C(O)=C(C(N)=O)C(=O)[C@@]2(O)C(O)=C3C(=O)c4c(O)ccc(Cl)c4[C@@](C)(O)[C@H]3C[C@@H]12 [Chlortetracycline] + CN[C@H](CC(C)C)C(=O)N[C@H]1C(=O)N[C@@H](CC(N)=O)C(=O)N[C@H]2C(=O)N[C@H]3C(=O)N[C@H](C(=O)N[C@H](C(=O)O)c4cc(O)cc(O)c4-c4cc3ccc4O)[C@H](O)c3ccc(c(Cl)c3)Oc3cc2cc(c3O[C@@H]2O[C@H](CO)[C@@H](O)[C@H](O)[C@H]2O[C@H]2C[C@](C)(N)[C@H](O)[C@H](C)O2)Oc2ccc(cc2Cl)[C@H]1O [Vancomycin]
S. aureus DSM 20231, first compound 0.006 µg/mL, one replicate
Details	fitness
partner 0.1875 µg/mL	0.806
partner 0.375 µg/mL	0.776
partner 0.75 µg/mL	0.79

Details	fitness
S. aureus DSM 20231, first compound 0.012 µg/mL, partner 0.1875 µg/mL	0.541
S. aureus DSM 20231, first compound 0.012 µg/mL, partner 0.375 µg/mL	0.499
S. aureus DSM 20231, first compound 0.012 µg/mL, partner 0.75 µg/mL	0.548
S. aureus DSM 20231, first compound 0.024 µg/mL, partner 0.375 µg/mL	0.28
S. aureus DSM 20231, first compound 0.048 µg/mL, partner 0.1875 µg/mL	0.103
S. aureus DSM 20231, first compound 0.048 µg/mL, partner 0.375 µg/mL	0.0854
S. aureus DSM 20231, first compound 0.048 µg/mL, partner 0.75 µg/mL	0.0806
S. pneumoniae D39V, first compound 0.012 µg/mL, partner 0.03125 µg/mL	0.883
S. pneumoniae D39V, first compound 0.012 µg/mL, partner 0.0625 µg/mL	0.903
S. pneumoniae D39V, first compound 0.012 µg/mL, partner 0.125 µg/mL	0.706
S. pneumoniae D39V, first compound 0.024 µg/mL, partner 0.03125 µg/mL	0.832
S. pneumoniae D39V, first compound 0.024 µg/mL, partner 0.0625 µg/mL	0.829
S. pneumoniae D39V, first compound 0.048 µg/mL, partner 0.03125 µg/mL	0.734
S. pneumoniae D39V, first compound 0.048 µg/mL, partner 0.0625 µg/mL	0.688
S. pneumoniae D39V, first compound 0.375 µg/mL, partner 0.125 µg/mL	0.0536
S. pneumoniae D39V, first compound 0.375 µg/mL, partner 0.25 µg/mL	0.0553
S. pneumoniae D39V, first compound 0.375 µg/mL, partner 0.5 µg/mL	0.0628
S. pneumoniae D39V, first compound 0.75 µg/mL, partner 0.125 µg/mL	0.0485
S. pneumoniae D39V, first compound 0.75 µg/mL, partner 0.25 µg/mL	0.0618
S. pneumoniae D39V, first compound 0.75 µg/mL, partner 0.5 µg/mL	0.0842
S. pneumoniae D39V, first compound 1.5 µg/mL, partner 0.125 µg/mL	0.0391
S. pneumoniae D39V, first compound 1.5 µg/mL, partner 0.25 µg/mL	0.0305
S. pneumoniae D39V, first compound 1.5 µg/mL, partner 0.5 µg/mL	0.0442
